Experimental data reported in patent US20230391796A1, “GLYCOSIDASE INHIBITORS AND USES THEREOF” (UNIVERSIDAD DE SEVILLA (US) -UNIVERSITY OF SEVILLE (US), priority 2020, published 2023).
Counter-ions that a name gives are not always drawn.

Experiments:
Type in all cases: biochemical
[1] = target: T1, hOGA (Homo sapiens, UniProt O60502); test: Inhibition assay against hOGA, resorufin N-acetyl-β-D-glucosaminide fluorescence; conditions: 0.2 nM hOGA, 25 μM substrate, pH 7.1; Morrison Ki
T1 sequence (O60502 1-916): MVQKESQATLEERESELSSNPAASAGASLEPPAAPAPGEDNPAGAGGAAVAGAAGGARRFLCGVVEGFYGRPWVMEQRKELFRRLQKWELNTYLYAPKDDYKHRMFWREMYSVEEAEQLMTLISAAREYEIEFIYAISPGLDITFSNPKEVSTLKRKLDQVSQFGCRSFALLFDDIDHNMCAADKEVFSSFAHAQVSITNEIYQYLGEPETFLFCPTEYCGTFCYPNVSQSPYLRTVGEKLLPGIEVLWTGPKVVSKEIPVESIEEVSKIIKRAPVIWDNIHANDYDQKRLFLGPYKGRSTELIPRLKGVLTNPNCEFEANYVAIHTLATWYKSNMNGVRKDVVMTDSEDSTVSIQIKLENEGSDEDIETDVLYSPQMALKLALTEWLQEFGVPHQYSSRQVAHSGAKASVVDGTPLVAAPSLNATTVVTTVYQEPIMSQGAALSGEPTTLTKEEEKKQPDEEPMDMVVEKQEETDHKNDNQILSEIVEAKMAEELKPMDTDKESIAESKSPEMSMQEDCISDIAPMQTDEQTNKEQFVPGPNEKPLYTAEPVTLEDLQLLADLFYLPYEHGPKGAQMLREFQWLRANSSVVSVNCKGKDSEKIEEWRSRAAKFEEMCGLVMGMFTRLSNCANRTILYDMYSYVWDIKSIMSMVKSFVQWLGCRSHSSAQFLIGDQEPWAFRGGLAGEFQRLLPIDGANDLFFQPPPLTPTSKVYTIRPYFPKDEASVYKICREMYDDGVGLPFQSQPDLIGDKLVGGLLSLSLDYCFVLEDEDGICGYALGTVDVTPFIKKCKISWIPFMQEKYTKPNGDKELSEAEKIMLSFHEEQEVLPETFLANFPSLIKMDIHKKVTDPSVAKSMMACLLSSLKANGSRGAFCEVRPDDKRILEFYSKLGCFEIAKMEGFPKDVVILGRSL
Procedure: Inhibition Assays Against hOGA
Km=25 μM was measured with these conditions. Inhibition assays were run at 0.2 nM [hOGA] in the same buffer, in the presence or absence of various concentrations of inhibitors and at a fixed substrate concentration of 25 μM and 1% DMSO. First, inhibitor was serially diluted to the desired range of concentrations in 2% DMSO buffer. Next, 50 μL of inhibitor solutions at various concentrations in 2% DMSO Buffer was added to 50 μL of 0.8 nM enzyme and allowed to incubate at 25° C. for 5 minutes. 100 uL of 50 μM and 1% DMSO substrate was then added and reaction mixture was immediately mixed and aliquoted in 45 μL triplicates to a CORNING 384 well black plate. Fluorescence signal was measured continuously for 20 minutes at 37° C. in a BioTek Neo 2 Plate reader set at excitation and emission wavelengths of 572 and 610 nm, respectively. Max reaction rates for all inhibitor concentrations were calculated within Gen5 BioTek reader software. % Activity was subsequently calculated for each inhibitor concentration against the max reaction rate of uninhibited hOGA. GraphPad Prism 2016 was used to approximate the Morrison Ki values for each inhibitor.

[2] = target: β-N-acetylglucosaminidase (from jack bean); test: Inhibition assay against commercial β-N-acetylglucosaminidase (jack bean), p-nitrophenyl N-acetyl-β-D-glucosaminide substrate; conditions: pH 5.5, 37° C.; average of three determinations ± s.e.m.; NI = no inhibition detected at 200 μM; read-out: Jack beans Hex
Procedure: (§1) Inhibition Assays Against Commercial β-N-acetylglucosaminidases
(§2) Inhibition constant (Ki) values were determined by spectrophotometrically measuring the residual hydrolytic activities of the glycosidases against p-nitrophenyl N-acetyl-β-D-glucosaminide. […] Each assay was performed in phosphate-citrate buffer and the reactions were initiated by addition of the enzyme to a solution of the substrate in the absence or presence of various inhibitor concentrations. The mixture was incubated for 10-30 min at 37° C. and the reaction was quenched by addition of 1 M Na2CO3. Reaction times were appropriate to obtain 10-20% conversion of the substrate in order to achieve linear rates. The absorbance of the resulting mixture was determined at 405 nm. Approximate values of Ki were determined using a fixed concentration of substrate (around the Km value for the different glycosidases) and various inhibitor concentrations. Full Ki determinations and enzyme inhibition mode were determined from the slope of Lineweaver-Burk plots and double reciprocal analysis using a Microsoft Office Excel 2007 program.

[3] = target: β-N-acetylglucosaminidase (from bovine kidney); test: Inhibition assay against commercial β-N-acetylglucosaminidase (bovine kidney), p-nitrophenyl N-acetyl-β-D-glucosaminide substrate; conditions: pH 5.5, 37° C.; average of three determinations ± s.e.m.; NI = no inhibition detected at 200 μM; read-out: Bovine kidney Hex
Procedure: as §1, §2

[4] = target: β-N-acetylglucosaminidase (from human placenta); test: Inhibition assay against commercial β-N-acetylglucosaminidase (human placenta), p-nitrophenyl N-acetyl-β-D-glucosaminide substrate; conditions: pH 5.5, 37° C.; average of three determinations ± s.e.m.; read-out: Human placenta Hex
Procedure: as §1, §2

Row | Structure (SMILES) | Ki [1] [nM] | Ki [2] [nM] | Ki [3] [nM] | Ki [4] [nM]
1 | CC(=O)N[C@H]1CN2/C(=N/Cc3cccc4ccccc34)SC[C@@H]2[C@@H](O)[C@@H]1O [Compound 5, 2-Acetamido-5-N,6-S-(N′-1-naphthylmethyliminomethylidene)-1,2-dideoxy-6-thionojirimycin Hydrochloride] | 0.292 | 2400 ± 200 | 890 ± 800 | –
2 | CC(=O)N[C@H]1CN2/C(=N/Cc3ccc(F)cc3)SC[C@@H]2[C@@H](O)[C@@H]1O [Compound 6, 2-N-Acetyl-5-N,6-S-(N′-p-fluorobenzyliminomethylidene)-1,2-dideoxy-6-thionojirimycin Hydrochloride] | 53.8 | 3200 ± 300 | 1500 ± 200 | 280 ± 20
3 | CC(=O)N[C@H]1CN2/C(=N/Cc3ccccc3CN=[N+]=[N-])SC[C@@H]2[C@@H](O)[C@@H]1O [Compound 9, 2-Acetamido-5-N,6-S-(N′-o-azidomethylbenzyliminomethylidene)-1,2-dideoxy-6-thionojirimycin Hydrochloride] | 0.278 | 3070 ± 300 | 910 ± 90 | –
4 | CC(=O)N[C@H]1CN2/C(=N/Cc3cccc(CN=[N+]=[N-])c3)SC[C@@H]2[C@@H](O)[C@@H]1O [Compound 10, 2-Acetamido-5-N,6-S-(N′-m-azidomethylbenzyliminomethylidene)-1,2-dideoxy-6-thionojirimycin Hydrochloride] | 0.223 | 3130 ± 800 | 830 ± 60 | –

The remaining compounds from weak to strong by Ki [1], led by results:

Row | Ki [1] [nM] | Ki [2] [nM] | Ki [3] [nM] | Ki [4] [nM] | Structure (SMILES)
5 | 47.7 | 1500 ± 100 | 430 ± 40 | 400 ± 30 | CC(=O)N[C@H]1CN2/C(=N/Cc3ccc(C(F)(F)F)cc3)SC[C@@H]2[C@@H](O)[C@@H]1O [Compound 8, 2-Acetamido-5-N,6-S-(N′-p-trifluoromethylbenzyliminomethylidene)-1,2-dideoxy-6-thionojirimycin hydrochloride]
6 | 27.8 | 2200 ± 100 | 1200 ± 100 | 730 ± 40 | COc1ccc(C/N=C2\SC[C@@H]3[C@@H](O)[C@H](O)[C@@H](NC(C)=O)CN23)cc1 [Compound 7, 2-N-Acetyl-5-N,6-S-(N′-p-methoxybenzyliminomethylidene)-1,2-dideoxy-6-thionojirimycin Hydrochloride]
7 | 0.918 | 2450 ± 320 | 1420 ± 120 | – | CC(=O)N[C@H]1CN2/C(=N/CCc3ccccc3)SC[C@@H]2[C@@H](O)[C@@H]1O [Compound 12, 2-Acetamido-5-N,6-S-(N′-2-phenylethyliminomethylidene)-1,2-dideoxy-6-thionojirimycin Hydrochloride]
8 | 0.438 | 3400 ± 800 | 720 ± 50 | – | CC(=O)N[C@H]1CN2/C(=N/Cc3ccc(CN=[N+]=[N-])cc3)SC[C@@H]2[C@@H](O)[C@@H]1O [Compound 11, 2-Acetamido-5-N,6-S-(N′-p-azidomethylbenzyliminomethylidene)-1,2-dideoxy-6-thionojirimycin Hydrochloride]
